Here are results for 9 molecules from publication PMC8596301 (Frontiers in Pharmacology, 2021).

In series [1] the test system is wild-type C57Bl/6 mice. The note with it: cited from earlier work.
Series [2] deals with T1, δOR (Homo sapiens, UniProt P41143). In words: biochemical. The series is classed as binding.
In the next series the target is κOR (Homo sapiens, UniProt P41145). Description: biochemical. The class given is binding.
In series [3] the target is T2, HA-mouse µOR (Mus musculus, UniProt P42866).
T2 construct: expressed in transfected cells; host or cells: HEK cells (HEK-293), transient, co-transfected with pGloSensor22F
T2 sequence (P42866 whole entry): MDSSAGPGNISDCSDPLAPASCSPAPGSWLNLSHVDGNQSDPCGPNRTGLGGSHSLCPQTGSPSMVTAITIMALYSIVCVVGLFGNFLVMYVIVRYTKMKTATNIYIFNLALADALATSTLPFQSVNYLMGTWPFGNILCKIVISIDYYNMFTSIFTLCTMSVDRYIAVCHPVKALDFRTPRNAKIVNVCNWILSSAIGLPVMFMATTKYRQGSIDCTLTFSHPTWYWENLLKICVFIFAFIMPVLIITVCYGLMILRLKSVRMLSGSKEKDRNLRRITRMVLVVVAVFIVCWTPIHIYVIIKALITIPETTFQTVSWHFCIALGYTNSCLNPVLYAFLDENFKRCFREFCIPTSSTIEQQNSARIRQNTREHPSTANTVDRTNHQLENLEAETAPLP
The note with it: cited from earlier work.

Series [4] addresses T3, FLAG-mouse δOR (Mus musculus, UniProt P32300).
T3 construct: expressed in transfected cells; host or cells: HEK cells (HEK-293), transient, co-transfected with pGloSensor22F
Further details: method as in Gutridge et al., 2020. The note with it: cited from earlier work.

Series [5] has as its target T4, FLAG-mouse κOR (Mus musculus, UniProt P33534).
T4 construct: expressed in transfected cells; host or cells: HEK cells (HEK-293), transient, co-transfected with pGloSensor22F
Also noted: method as in Gutridge et al., 2020. The settings on record: cited from earlier work.

Series [6] deals with C57Bl/6 male mice. The note with it: 3 mg∙kg^−1; ref Gutridge et al., 2020; cited from earlier work.
For series [7], the system named is C57Bl/6 male mice. Description: Locomotor evaluation (ambulation). The settings on record: 7-hydroxymitragynine 3 mg∙kg^−1 i.p.; naloxone 1 mg∙kg^−1 s.c. 10 min prior; WT male mice; 90 min.
Series [8] addresses T1, δOR. Further details: expressed in transfected cells; method as in Gutridge et al., 2020. The settings on record: ref Gutridge et al., 2020; cited from earlier work.
The target of another series is μOR (Homo sapiens, UniProt P35372). Description: biochemical. The series is classed as binding.
Sequence of μOR (P35372 whole entry): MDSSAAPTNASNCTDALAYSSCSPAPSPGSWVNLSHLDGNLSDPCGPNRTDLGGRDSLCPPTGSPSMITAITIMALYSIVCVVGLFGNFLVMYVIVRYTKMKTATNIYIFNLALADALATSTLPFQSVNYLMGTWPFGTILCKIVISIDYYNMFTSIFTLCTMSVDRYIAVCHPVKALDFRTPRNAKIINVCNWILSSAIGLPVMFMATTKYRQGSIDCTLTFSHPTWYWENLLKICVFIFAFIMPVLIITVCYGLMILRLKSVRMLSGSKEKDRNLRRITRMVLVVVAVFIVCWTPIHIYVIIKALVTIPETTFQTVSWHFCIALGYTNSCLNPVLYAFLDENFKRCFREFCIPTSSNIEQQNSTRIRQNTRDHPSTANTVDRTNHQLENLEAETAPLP
The target in series [9] is T2, HA-mouse µOR. In words: cell-based. The note with it: for Emax: HEK293, read-out: cAMP α (% inhibition at maximal efficacy).
The target of series [10] is T3, FLAG-mouse δOR. In words: cell-based. The settings on record: for Emax: HEK293, read-out: cAMP α (% inhibition at maximal efficacy).
The test system of series [11] is wild-type C57Bl/6 mice. In words: Two-bottle choice alcohol paradigm (drinking in the dark, 10% ethanol vs. water). The series is classed as in vivo, mouse. The settings on record: WT male mice. Here is the method:
(§1) Mice were subject to drinking in the dark (DID), limited access (4 h per day), two-bottle choice (10% ethanol vs. water) paradigm in which they were trained to consume alcohol voluntarily as previously described ([Rhodes et al., 2005]; [van Rijn and Whistler, 2009]). Mice reached stable alcohol consumption within 3 weeks of training, and after the third week, drug injections were administered prior to the daily drinking session on Friday. Drug’s effect on alcohol consumption was measured as the change in Friday’s alcohol intake minus the average alcohol intake from the preceding Tuesday–Thursday of that week (g∙kg^−1). A summary of all statistical analyses for the drinking data can be found in Supplemental Tables S6–S9. In brief, results from two-bottle choice alcohol consumption paradigms were assessed for statistical significance using RM two-way ANOVA for main effects of drug dose, treatment day, and drug dose × treatment day; Sidak’s multiple comparisons (MC) between alcohol consumption baseline (Tuesday–Thursday average) vs. treatment day consumption (Friday) were then used as the post hoc test for each drug dose tested. The same RM two-way ANOVA and Sidak’s MC post hoc analyses were used for water consumption and ethanol preference data. […] Sex differences between baseline data were evaluated using RM two-way ANOVA for main effects of sex, treatment baseline, and sex × treatment baseline; Sidak’s multiple comparisons (MC) between male and female mice were then used as the post hoc test for each treatment week tested.

Series [12] concerns the target T4, FLAG-mouse κOR. Description: cell-based.
The subject of a further series is δOR KO mice. In words: Two-bottle choice alcohol paradigm (drinking in the dark, 10% ethanol vs. water). The class given is in vivo, mouse. The note with it: speciociliatine 30 mg∙kg^−1 i.p.; δOR KO male mice. Here is the method: as §1
For series [13], the system named is wild-type and δOR KO male mice. Description: Accelerating rotarod test. The class given is in vivo, mouse. How it is done: Mice were trained to walk on a rotarod apparatus (IITC, United States) with 1.25” diameter drums 2 days prior to drug testing. The rotarod started at 3 rpm and was increased to 30 rpm over 300 s. A trial for a mouse ended when it fell and tripped the sensor, when it rode the rotarod for two consecutive revolutions, or after 300 s (the maximum trial time)([White et al., 2015]). Mice received at least 3 min of rest between trials. On test day, baseline performance was assessed as the average latency to fall in three trials per mouse. […] Each mouse’s performance was normalized to its own baseline and reported as a percentage. A summary of all statistical analyses for the rotarod data can be found in Supplemental Table S2. In brief, data for each tested timepoint were calculated as a percentage of the baseline, and thus statistical significance was calculated in a two-tailed, one sample t test vs. a hypothetical mean of 100 (baseline was 100%). Rotarod results between WT and δOR KO genotypes were compared with a mixed-effects model with fixed effects for timepoint, genotype, and timepoint × genotype.

Where [14] appears, read: read-out: cAMP IC50, ref Gutridge et al., 2020.
Where [15] appears, read: 7-hydroxypaynantheine 30 mg∙kg^−1 s.c.
[16] abbreviates: speciociliatine 3, 10 and 30 mg∙kg^−1 i.p.
The mark [17] stands for this setting: 30 mg∙kg^−1 i.p., wild-type mice.

The structures appear in SMILES notation. Read-outs that look alike come from different tables or passages of the source.

T1 sequence (P41143 whole entry): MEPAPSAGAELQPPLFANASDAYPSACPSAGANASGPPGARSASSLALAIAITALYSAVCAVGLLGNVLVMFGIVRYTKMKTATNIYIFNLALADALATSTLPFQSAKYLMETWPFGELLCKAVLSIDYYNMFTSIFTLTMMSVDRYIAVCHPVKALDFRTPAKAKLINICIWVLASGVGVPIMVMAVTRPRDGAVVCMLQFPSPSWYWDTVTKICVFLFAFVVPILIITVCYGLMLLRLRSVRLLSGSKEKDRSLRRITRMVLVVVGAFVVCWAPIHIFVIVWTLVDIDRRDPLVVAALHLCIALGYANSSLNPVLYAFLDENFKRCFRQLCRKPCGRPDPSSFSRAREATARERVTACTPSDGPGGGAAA
T4 sequence (P33534 whole entry): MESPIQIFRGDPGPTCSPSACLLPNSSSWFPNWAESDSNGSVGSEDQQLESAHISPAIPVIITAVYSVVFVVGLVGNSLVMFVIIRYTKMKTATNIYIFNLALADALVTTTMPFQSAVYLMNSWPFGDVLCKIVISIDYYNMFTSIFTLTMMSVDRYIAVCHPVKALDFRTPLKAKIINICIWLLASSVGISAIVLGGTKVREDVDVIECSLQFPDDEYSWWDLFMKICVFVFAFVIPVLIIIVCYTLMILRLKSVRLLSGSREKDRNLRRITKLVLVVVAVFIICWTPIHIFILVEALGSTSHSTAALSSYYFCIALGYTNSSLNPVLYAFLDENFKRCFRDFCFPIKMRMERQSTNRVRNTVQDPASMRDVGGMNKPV
T3 sequence (P32300 whole entry): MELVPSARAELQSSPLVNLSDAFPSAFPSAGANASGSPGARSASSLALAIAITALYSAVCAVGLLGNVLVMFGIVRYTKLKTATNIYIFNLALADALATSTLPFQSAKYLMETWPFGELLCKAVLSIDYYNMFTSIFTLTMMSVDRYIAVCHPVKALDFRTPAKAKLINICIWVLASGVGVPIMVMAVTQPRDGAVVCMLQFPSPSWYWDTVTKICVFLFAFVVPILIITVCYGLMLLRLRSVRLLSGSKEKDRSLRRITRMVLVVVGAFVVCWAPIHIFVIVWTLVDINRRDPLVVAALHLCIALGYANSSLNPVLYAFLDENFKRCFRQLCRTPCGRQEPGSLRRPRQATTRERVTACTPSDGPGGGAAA
Sequence of κOR (P41145 whole entry): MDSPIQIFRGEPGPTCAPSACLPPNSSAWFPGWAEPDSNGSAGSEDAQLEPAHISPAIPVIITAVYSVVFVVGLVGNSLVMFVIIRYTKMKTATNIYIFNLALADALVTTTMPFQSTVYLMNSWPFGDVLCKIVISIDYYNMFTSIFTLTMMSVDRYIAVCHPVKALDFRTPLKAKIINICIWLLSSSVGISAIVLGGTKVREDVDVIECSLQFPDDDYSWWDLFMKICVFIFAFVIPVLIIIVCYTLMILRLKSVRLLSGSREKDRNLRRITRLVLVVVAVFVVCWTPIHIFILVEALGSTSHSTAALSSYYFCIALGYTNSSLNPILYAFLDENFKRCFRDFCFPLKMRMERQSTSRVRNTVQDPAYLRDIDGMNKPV

With `Oc1ccc2c3c1O[C@H]1c4oc5ccccc5c4C[C@@]4(O)[C@@H](C2)N(CC2CC2)CC[C@]314` [naltriben], the Alcohol consumption entry with wild-type C57Bl/6 mice [1] (6 and 10 mg∙kg^−1, ref van Rijn and Whistler, 2009) is “dose-dependently decreases alcohol consumption”.
What is called Ki is a measure of affinity in units of concentration, obtained from inhibition or displacement. In general, IC50 refers to the concentration at which inhibition is half-maximal. As to `CC[C@@H]1CN2CC[C@@]3(O)C(=Nc4cccc(OC)c43)[C@@H]2C[C@@H]1/C(=C\OC)C(=O)OC` [7-OH MITRA, 7-hydroxymitragynine, reference compound], the Ki amounted to 0.19 µM at δOR [2] and 0.14 µM on κOR (Binding Ki (µM)). For the same molecule, the “cAMP α” value at HA-mouse µOR [3] is 84 ± 3; on FLAG-mouse δOR [4] (normalized to Leu-enkephalin, ref Gutridge et al., 2020), 80 ± 8; on FLAG-mouse κOR [5] (normalized to U50,488, ref Gutridge et al., 2020), 77 ± 5. In addition, the IC50 at FLAG-mouse δOR [4] (setting [14]) is 0.96 µM; at FLAG-mouse κOR [5] (setting [14]), 1.04 µM. Also, the “Minimal effective dose to reduce alcohol intake” value in the series with wild-type C57Bl/6 mice [1] (ref Gutridge et al., 2020) is 3 mg/kg. Also, the “Hyperlocomotion and CPP” value with C57Bl/6 male mice [6] was “caused both hyperlocomotion and CPP”. Further, the “Hyperlocomotion induced by 7-hydroxymitragynine after naloxone pretreatment” value in the series with C57Bl/6 male mice [7] is listed as “blocked”. For the same molecule, on δOR [8], the “β-arrestin 2 α” value is given as 14 ± 1.
For the molecule `C=C[C@H]1CN2CC[C@@]3(O)C(=Nc4cccc(OC)c43)[C@@H]2C[C@@H]1/C(=C\OC)C(=O)OC` [7OH PAYN, 7-Hydroxypaynantheine], the results for the Ki at μOR, on δOR [2] and on κOR (Binding Ki (µM)) were 6.15 µM, 12.7 µM and 7.46 µM, respectively. The IC50 against HA-mouse µOR [9] worked out at 21.8 µM; against FLAG-mouse δOR [10], 5.74 µM. In addition, the Emax on HA-mouse µOR [9] amounted to 80 ± 40%; at FLAG-mouse δOR [10] it was 70 ± 20%. Moreover, the “Decrease in ethanol consumption” value in the series on wild-type C57Bl/6 mice [11] (30 mg∙kg^−1 s.c.) amounted to 1.1 ± 0.3 g/kg. For the same molecule, the “Reduction in ethanol consumption” value with wild-type C57Bl/6 mice [11] (30 mg∙kg^−1 s.c.) came out at 40 ± 11%. Besides, the Ethanol preference result in the series with wild-type C57Bl/6 mice [11] (setting [15]) was “corresponding decrease in ethanol preference”. Also, in the series on wild-type C57Bl/6 mice [11] (setting [15]), the Water consumption result was “concomitant increase in water consumption”. In addition, in the series with wild-type C57Bl/6 mice [11] (7-hydroxypaynantheine 10 and 30 mg∙kg^−1 s.c.), the Alcohol intake entry is given as “significantly reduce alcohol intake”.
Turning to `CC[C@H]1CN2CCc3c([nH]c4cccc(OC)c34)[C@@H]2C[C@@H]1/C(=C\OC)C(=O)OC` [SPG, speciogynine], the figures for the Ki on κOR (Binding Ki (µM)) and at κOR (Binding pKi) were 3 µM and 3.98 µM, respectively.
For the molecule `COc1ccsc1CNCC[C@@]1(c2ccccn2)CCOC2(CCCC2)C1` [Oliceridine/TRV130, Oliceridine], the Alcohol consumption result in the series with wild-type C57Bl/6 mice [1] (selective activation of μOR G-protein signaling, ref Gutridge et al., 2020) was “did not decrease alcohol consumption”.
In the case of `C=CC1CN2CCC3(Nc4cccc(OC)c4C3=O)C2CC1C(=COC)C(=O)OC` (centres unmarked) [PAYN PI, Paynantheine Pseudoindoxyl], the Ki on μOR is 0.68 µM; at δOR [2] it was 0.92 µM; at κOR (Binding Ki (µM)), 1.31 µM. At HA-mouse µOR [9], this molecule yielded an IC50 of 4.82 µM. At HA-mouse µOR [9], the Emax came to 60 ± 6%.
As to `CC[C@@H]1CN2CCc3c([nH]c4cccc(OC)c34)[C@H]2C[C@@H]1/C(=C\OC)C(=O)OC` [SPECIO, speciociliatine], the Ki at δOR [2] was 4.34 µM. Further, the Ki at κOR (Binding Ki (µM)) came to 0.59 µM. Besides, the Emax at FLAG-mouse κOR [12] (HEK293, read-out: cAMP α (% inhibition at maximal efficacy)) came to 60 ± 7%. Also, in the series with wild-type C57Bl/6 mice [11] (30 mg∙kg^−1 i.p.), the “Average decrease in ethanol consumption” value was 2.5 ± 0.3 g/kg and the “Reduction in ethanol consumption” value is 90 ± 3%. Besides, the Ethanol preference entry with wild-type C57Bl/6 mice [11] (speciociliatine 30 mg∙kg^−1 i.p.) is reported as “significantly decreased”. In the series on wild-type C57Bl/6 mice [11] (setting [16]), the Ethanol consumption entry is reported as “significantly decreased ethanol consumption but only at the 30 mg∙kg^−1 dose” and the Water consumption entry was “did not change water consumption”. Moreover, in the series on δOR KO mice, the Ethanol preference result is given as “significantly decreased” and the Water consumption entry is on record as “did not change water consumption”. The “Seizure level observed in the rotarod assay” value in series [13] (30 mg/kg i.p., one δOR KO mouse) was 5–6. In addition, the “Mortality in the rotarod assay” value in series [13] (30 mg/kg i.p., δOR KO mice (n = 8)) was “one δOR KO mouse died”. Besides, in [13] (setting [17]), the “Rotarod performance (latency to fall, % of baseline)” value is reported as “significantly reduced the ability” and the “Time of full recovery on rotarod” value is 120 min. For the same molecule, the Rotarod performance result in series [13] (30 mg∙kg^−1 i.p., δOR KO mice) was “same effect was observed”.
In the case of `CC[C@H]1CN2CC[C@]3(Nc4cccc(OC)c4C3=O)[C@@H]2C[C@@H]1/C(=C\OC)C(=O)OC` [SPG PI, Speciogynine Pseudoindoxyl], the Ki was determined as 0.077 µM on μOR, 0.94 µM at δOR [2] and 0.75 µM on κOR. Further, the values for the IC50 against HA-mouse µOR [9], against FLAG-mouse δOR [10] and at FLAG-mouse κOR [12] were 0.23 µM, 8.53 µM and 20.6 µM, respectively. Moreover, the Emax came out at 58 ± 4% at HA-mouse µOR [9] and 80 ± 20% on FLAG-mouse δOR [10].
Regarding `Oc1ccc2c3c1O[C@H]1c4[nH]c5ccccc5c4C[C@@]4(O)[C@@H](C2)N(CC2CC2)CC[C@]314` [naltrindole], in the series with wild-type C57Bl/6 mice [1] (10 mg∙kg^−1, ref van Rijn and Whistler, 2009), the Alcohol intake result is “does not decrease alcohol intake”.
